The text below walks through data of patent US11351268B2, “FGF21 C-terminal peptide optimization” (INDIANA UNIVERSITY RESEARCH AND TECHNOLOGY CORPORATION, priority 2016, dated 2022).

Non-standard residues stand in square brackets, D forms with d. Residues, ends and D or L forms follow the SMILES beside them. No end group written: not given here.

The target of one experiment is T1, Klotho β (KLB) (Homo sapiens, UniProt Q86Z14).
T1 construct: expressed in transfected cells; host or cells: HEK 293T (ATCC), pooled Zeocin-selected cells stably expressing hKLB from pcDNA3.1(+)
T1 sequence (Q86Z14 1-1044): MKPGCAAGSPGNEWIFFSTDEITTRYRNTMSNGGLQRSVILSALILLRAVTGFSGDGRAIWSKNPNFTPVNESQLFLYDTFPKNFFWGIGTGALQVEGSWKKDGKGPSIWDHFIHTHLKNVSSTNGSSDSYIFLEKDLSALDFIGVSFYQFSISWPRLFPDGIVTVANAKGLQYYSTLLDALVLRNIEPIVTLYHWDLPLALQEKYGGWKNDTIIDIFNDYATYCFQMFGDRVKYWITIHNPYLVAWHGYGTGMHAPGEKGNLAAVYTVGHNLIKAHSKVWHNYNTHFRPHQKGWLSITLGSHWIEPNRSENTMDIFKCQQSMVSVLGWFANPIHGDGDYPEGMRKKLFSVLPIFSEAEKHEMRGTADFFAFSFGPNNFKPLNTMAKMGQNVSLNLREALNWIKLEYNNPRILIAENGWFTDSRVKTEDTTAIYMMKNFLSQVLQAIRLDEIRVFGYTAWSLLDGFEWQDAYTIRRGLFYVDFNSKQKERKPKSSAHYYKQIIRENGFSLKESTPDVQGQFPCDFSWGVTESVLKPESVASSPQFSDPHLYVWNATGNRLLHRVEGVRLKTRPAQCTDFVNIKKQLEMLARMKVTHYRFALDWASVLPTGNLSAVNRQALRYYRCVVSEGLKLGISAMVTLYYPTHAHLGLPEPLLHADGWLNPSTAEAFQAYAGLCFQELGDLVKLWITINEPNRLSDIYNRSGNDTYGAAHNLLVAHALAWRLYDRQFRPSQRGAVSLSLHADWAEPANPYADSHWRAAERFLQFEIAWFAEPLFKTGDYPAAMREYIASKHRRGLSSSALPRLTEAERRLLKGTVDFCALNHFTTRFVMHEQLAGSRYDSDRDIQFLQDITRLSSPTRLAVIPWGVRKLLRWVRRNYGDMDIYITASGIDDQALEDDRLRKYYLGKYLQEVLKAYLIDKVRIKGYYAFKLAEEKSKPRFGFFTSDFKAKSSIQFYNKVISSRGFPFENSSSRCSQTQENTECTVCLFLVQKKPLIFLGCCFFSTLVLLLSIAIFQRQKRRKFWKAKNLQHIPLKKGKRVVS
The experiment is described as follows: cell-based. It counts as cell-based. Particulars: for Emax: Table 1, native sequence = 100% response, read-out: % max activity. The method, then:
(§1) Cells were cultured in 10% Fetal Bovine Serum containing DMEM High glucose GLUTAMAX® at 37 C, 95% humidity, 5% CO2. For generating the cell line with stable expression, human KLB gene was synthesized by Genscript and subcloned into pcDNA3.1(+) with ZEOCIN® resistance vector (INVITROGEN®) by NheI and NotI restriction enzyme sites. HEK 293T cells were obtained from ATCC and were transiently transfected at 80% confluency using Lipofectamine 3000 (Invitrogen). Selection for KLB-expressing cells was initiated 48 hours post-transfection in the growth media containing 100 μg/ml of ZEOCIN® (Gibco) and continued for 4 weeks with fresh media added every third day. Human KLB expression in pooled cells was confirmed by Western blot and a functional FGF21 MAPK phosphorylation assay.
(§2) 293 HEK cells expressing hKLB were plated to 90% confluency in 96 well plates coated with poly-D-Lysine. Cells were serum starved for three hours in 0.1% BSA containing media prior to stimulation with protein and/or an antagonist peptide for ten minutes at 37° C. The cell lysate was used for the detection of phospho-Erk1/2 levels by AlphaSureFire kit using the prescribed protocol. The degree of biochemical activation was recorded and analyzed using Origin software by logistic curve fitting. Tests at each concentration were done in triplicates, and the standard deviation is as shown in the graphs. The calculation of maximal activities was done keeping the FGF21 157-181 or FGF19 169-194 peptide activity as standard. The difference between the Erk1/2 phosphorylation signal for the highest (10 μM) and the lowest (0 μM) tested dose for native peptide was considered as 100% and accordingly all the other values were assigned.

In a further experiment the test system is FGF21 receptor. The experiment is described as follows: Erk1/2 phosphorylation assay: agonist activity in 293T HEK hKLB cells. Format: cell-based, human. The note with it: for IC50: full length FGF21 analogs, tested in triplicate; for EC50: read-out: EC-50. How it is done: as §1, §2
Setting [1] is: Table 2(A), FGF21 157-181 alanine mutants, ≥95% maximal activity.
[2] abbreviates: Table 5, FGF19/FGF21 chimeric peptides.
Where [3] appears, read: Table 6, derivatives of SEQ ID NO: 180.
[4] abbreviates: Table 1, alanine scan of FGF21 25mer, antagonism of native FGF21 response.
The mark [5] stands for this setting: FIGS. 9A/9B, full length proteins, Erk1/2 phosphorylation.

One may read the IC50 as the concentration at which inhibition is half-maximal. Low values mean inhibition by little substance, high ones a need for much substance. On to “PPDVGSSDPLSMVAPSQGRSPSYAS-NH2 (C-terminus assumed) [Peptide A14, PPDVGSSDPLSMVAPSQGRSPSYAS]”, for which, on Klotho β (KLB), the “% max activity” value turned out to be 97.7%. Besides, half-maximal inhibition against Klotho β (KLB) (setting [1]) (IC50) was put at 130 nM.

As for “PPDVGSSDPLSMVGPSQGRSPSYAS-NH2 [Peptide C25, PPDVGSSDPLSMVGPSQGRSPSYAS, reference compound]”, the “% max activity” value on Klotho β (KLB) came to 100.0%. Moreover, the IC50 at Klotho β (KLB) (FIG. 8B, FGF21 and FGF19 C-terminal peptides) was found to be 40 nM; at Klotho β (KLB) (setting [2]), 116 ± 4 nM.

In the case of “PPDVGSMDPFGLVGRSQGRSPSFEA-NH2 (C-terminus assumed) [Peptide 0470]”, it took 4.9 ± 1.1 nM to reach half-maximal inhibition against Klotho β (KLB) (setting [3]) (IC50).

As to “PLETDSMDPFGLVGPSQGRSPSFEA-NH2 (C-terminus assumed) [Peptide 0430]”, the IC50 against Klotho β (KLB) (setting [2]) was 15.9 ± 1.1 nM.

Turning to `CSCC[C@H](NC(=O)[C@H](CO)NC(=O)[C@H](CC(C)C)NC(=O)[C@@H]1CCCN1C(=O)[C@H](CC(=O)O)NC(=O)[C@H](CO)NC(=O)[C@H](CO)NC(=O)CNC(=O)[C@@H](NC(=O)[C@H](CC(=O)O)NC(=O)[C@@H]1CCCN1C(=O)[C@@H]1CCCN1)C(C)C)C(=O)N[C@H](C(=O)NCC(=O)N1CCC[C@H]1C(=O)N[C@@H](CO)C(=O)N[C@@H](CCC(N)=O)C(=O)NCC(=O)N[C@H](CCCNC(=N)N)C(=O)N[C@@H](CO)C(=O)N1CCC[C@H]1C(=O)N[C@@H](CO)C(=O)N[C@@H](Cc1ccc(O)cc1)C(=O)N[C@@H](C)C(=O)N[C@@H](CO)C(N)=O)C(C)C` [d19, PPDVG SSDPL SMVGP SQGrS PSYAS] (H-PPDVGSSDPLSMVGPSQG[dR]SPSYAS-NH2; N-terminus and C-terminus assumed), the “% Activity vs C25” value on Klotho β (KLB) (Table 3, D-amino acid scan, C25 = 100) is 270.70 ± 136.83%. Further, on Klotho β (KLB) (relative to native C-terminal peptide), the “fold increase of antagonistic potency over the native peptide” value was found to be 2 fold.

On to “FGF21 (amino acids 153-181): C-terminal peptide of FGF21, amino acids 153-181 (LAPQPPDVGSSDPLSMVGPSQGRSPSYAS) [reference compound]”, for which, in the experiment with Klotho β (KLB) (10 nM FGF21 stimulation, 293 HEK hKLB cells), the “antagonism of FGF21 activity (in words)” value is on record as “exhibit antagonism to FGF21 activity”.

“PPDVLSMDPFGLVGPSQGRSPSFEA-NH2 (C-terminus assumed) [Peptide 0481]” had a concentration for half-maximal inhibition (IC50) against Klotho β (KLB) (setting [3]) of 2.6 ± 0.8 nM.

Take “PADVGSSDPLSMVGPSQGRSPSYAS-NH2 (C-terminus assumed) [Peptide A2, PADVGSSDPLSMVGPSQGRSPSYAS]”: the Emax at Klotho β (KLB) came to 98.5%.

For the molecule “PPDVGSSDPLAMVGPSQGRSPSYAS-NH2 (C-terminus assumed) [Peptide A11, PPDVGSSDPLAMVGPSQGRSPSYAS]”, the IC50 against Klotho β (KLB) (setting [4]) amounted to 102 nM; against Klotho β (KLB) (setting [1]), 150 nM. The Emax on Klotho β (KLB) is 98%.

Consider “PPDVGSSDPLSMVTGLEAVRSPSFEA-NH2 (C-terminus assumed) [Peptide 0435]”, for which, at Klotho β (KLB) (setting [2]), the IC50 stood at 65.1 ± 4.8 nM.

As for “PPDVGSSDPLSMVGASQGRSPSYAS-NH2 (C-terminus assumed) [Peptide A15, PPDVGSSDPLSMVGASQGRSPSYAS]”, the Emax on Klotho β (KLB) came out at 93.9%. It took 120 nM to reach half-maximal inhibition against Klotho β (KLB) (setting [1]) (IC50).

“PPDVGSSDPLSMVGPSQGRSPAYAS-NH2 (C-terminus assumed) [Peptide A22, PPDVGSSDPLSMVGPSQGRSPAYAS]”: the Emax on Klotho β (KLB) was 78.5%.

For “PPDVGSSDPLSMVGPSQARSPSYAS-NH2 (C-terminus assumed) [Peptide A18, PPDVGSSDPLSMVGPSQARSPSYAS]”, the “% max activity” value at Klotho β (KLB) was 102.9%. Moreover, the IC50 on Klotho β (KLB) (setting [4]) turned out to be 139 nM; at Klotho β (KLB) (setting [1]), 150 nM.

As to “PPDVFSMDPFGLVGPSQGRSPSFEA-NH2 (C-terminus assumed) [Peptide 0480]”, on Klotho β (KLB) (setting [3]), half-maximal inhibition (IC50) required 2.6 ± 0.5 nM.

Take “PLETDSSDPLSMVGPSQGRSPSFEA-NH2 (C-terminus assumed) [Peptide 0432]”: the IC50 against Klotho β (KLB) (setting [2]) came out at 120 ± 6.3 nM.

“PPDVGSSDPLSMVGPAQGRSPSYAS-NH2 (C-terminus assumed) [Peptide A16, PPDVGSSDPLSMVGPAQGRSPSYAS]” registered an IC50 at Klotho β (KLB) (setting [4]) of 120 nM. At Klotho β (KLB), the Emax was 101%.

B1: FGF21 481K: analog of FGF21 481A where the C-terminal alanine is replaced with a lysine (protein)
chain: HPIPDSSPLLQFGGQVRQRYLYTDDAQQTECHLEIREDGTVGCAADQSPESLLQLKALKPGVIQILGVKTSRFLCQRPDGALYGSLHFDPEACSFREDLKEDGYNVYQSEAHGLPLHLPGDKSPHRKPAPRGPARFLPLPGLPPALPEPPGILAPQPPDVLSMDPFGLVGPSQGRSPSFEK
The molecule B1 showed a 50% inhibitory concentration (IC50) in the experiment on FGF21 receptor of 0.56 ± 0.06 nM.

B2: FGF21 481A: modified FGF21 N-terminus fused to peptide 0481 (protein, listed as Homo sapiens)
chain: HPIPDSSPLLQFGGQVRQRYLYTDDAQQTECHLEIREDGTVGCAADQSPESLLQLKALKPGVIQILGVKTSRFLCQRPDGALYGSLHFDPEACSFREDLKEDGYNVYQSEAHGLPLHLPGDKSPHRKPAPRGPARFLPLPGLPPALPEPPGILAPQPPDVLSMDPFGLVGPSQGRSPSFEA
With B2, the IC50 in the experiment with FGF21 receptor came to 0.19 ± 0.08 nM. This IC50 is about 2.9-fold lower than that of the molecule before.

B3: FGF21-19 K194A: chimeric analog: core of FGF21 1-156 and an extension of the FGF19 169-194 K194A peptide (protein)
chain: HPIPDSSPLLQFGGQVRQRYLYTDDAQQTEAHLEIREDGTVGGAADQSPESLLQLKALKPGVIQILGVKTSRFLCQRPDGALYGSLHFDPEACSFRELLLEDGYNVYQSEAHGLPLHLPGNKSPHRDPAPRGPARFLPLPGLPPALPEPPGILAPQPLETDSMDPFGLVTGLEAVRSPSFEA
As to B3, in the experiment with FGF21 receptor (setting [5]), the “% maximal activity” value was found to be 84% and the EC50 turned out to be 0.5 nM. Moreover, in the experiment with FGF21 receptor (agonist activity of chimeric analog), the “fold more potent than native FGF21” value is “approximately 5 fold”.

B4: FGF21 D164A: full length FGF21 with alanine at position 164 (protein)
chain: HPIPDSSPLLQFGGQVRQRYLYTDDAQQTEAHLEIREDGTVGGAADQSPESLLQLKALKPGVIQILGVKTSRFLCQRPDGALYGSLHFDPEACSFRELLLEDGYNVYQSEAHGLPLHLPGNKSPHRDPAPRGPARFLPLPGLPPALPEPPGILAPQPPDVGSSAPLSMVGPSQGRSPSYAS
For B4, in the experiment on FGF21 receptor (setting [5]), the EC-50 result was “inactive”.

B5: FGF21 P171A: full length FGF21 with alanine at position 171 (protein)
chain: HPIPDSSPLLQFGGQVRQRYLYTDDAQQTEAHLEIREDGTVGGAADQSPESLLQLKALKPGVIQILGVKTSRFLCQRPDGALYGSLHFDPEACSFRELLLEDGYNVYQSEAHGLPLHLPGNKSPHRDPAPRGPARFLPLPGLPPALPEPPGILAPQPPDVGSSDPLSMVGASQGRSPSYAS
For the molecule B5, in the experiment on FGF21 receptor (setting [5]), the EC50 was found to be 4.5 nM.
